Experimental findings from ChEMBL document CHEMBL1914288, “Design and synthesis of biotinylated DHMEQ for direct identification of its target NF-κB components” (Bioorg Med Chem Lett, 2011) are described below.

Series [1] in a line: Stability of the compound under neutral conditions. Type of series: physicochemical.
Series [2] relates to RAW264.7. The series can be described thus: Inhibition of LPS-induced nitric oxide production in mouse RAW264.7 cells preincubated for 1 hr prior LPS stimulation measured after 24 hrs by Griess reaction. Type of series: functional, cell-based.
Series [3] deals with RAW264.7. The series can be described thus: Inhibition of NF-kappaB activation in LPS-stimulated mouse RAW264.7 cells assessed as DNA binding using 32P-labeled oligonucleotide with the high affinity site 5'-AGTTGAGGGGACTTTCCCAGGC-3' at 3 ug/mL after 30 mins by EMSA. Type of series: cell-based. A general note: In EMSA bound probe runs differently from free probe, usually more slowly.

The test system of series [4] is RAW264.7. The series can be described thus: Cytotoxicity against mouse RAW264.7 cells at 10 ug/mL after 24 hrs by MTT assay. Type of series: cell-based. As to conditions: raw264.7, 24 h.
Series [5] has as its target Transcription factor p65 (Homo sapiens) (UniProt Q04206). The series can be described thus: Binding affinity to recombinant NF-kappaB transcription factor p65 subunit at 4 equiv mol concentration after 1 hr by MALDI-TOF MS analysis.
Series [6] can be described thus: Stability of the compound in DMSO for 4 weeks. Type of series: physicochemical. To be noted: 672 h.
The test system of series [7] is RAW264.7. The series can be described thus: Inhibition of LPS-induced nitric oxide production in mouse RAW264.7 cells at 100 ug/mL preincubated for 1 hr prior LPS stimulation measured after 24 hrs by Griess reaction relative to (-)-DHMEQ. It is filed as functional, cell-based. A general note: The Griess reaction detects nitrite, a stable product of nitric oxide.
The test system of series [8] is Transcription factor p65 (Homo sapiens), Q04206 [C38S]. The series can be described thus: Binding affinity to recombinant NF-kappaB transcription factor p65 subunit C38S mutant at 4 equiv mol concentration after 1 hr by MALDI-TOF MS analysis.

Activity calls are given as the source filed them. The calls are words filed in the database; no cut-off is given here.

Transcription factor p65 (Homo sapiens), sequence (Q04206 whole entry): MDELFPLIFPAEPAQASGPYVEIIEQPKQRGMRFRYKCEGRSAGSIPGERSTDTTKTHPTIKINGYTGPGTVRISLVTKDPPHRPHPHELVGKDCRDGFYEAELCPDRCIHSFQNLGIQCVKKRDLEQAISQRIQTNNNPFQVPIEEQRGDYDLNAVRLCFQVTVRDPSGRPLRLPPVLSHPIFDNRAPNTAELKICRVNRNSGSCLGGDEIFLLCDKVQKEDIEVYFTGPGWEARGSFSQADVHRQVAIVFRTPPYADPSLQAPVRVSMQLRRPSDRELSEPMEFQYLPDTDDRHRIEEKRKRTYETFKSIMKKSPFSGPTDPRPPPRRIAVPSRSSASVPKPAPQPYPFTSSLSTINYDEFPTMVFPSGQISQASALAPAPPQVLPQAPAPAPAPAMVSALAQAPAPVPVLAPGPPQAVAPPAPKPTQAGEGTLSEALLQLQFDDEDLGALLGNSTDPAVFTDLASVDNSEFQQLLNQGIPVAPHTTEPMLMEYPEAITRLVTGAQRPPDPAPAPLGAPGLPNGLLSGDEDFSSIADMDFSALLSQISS
Transcription factor p65 (Homo sapiens), Q04206 [C38S], sequence (Q04206 whole entry C38S): as the sequence (Q04206 whole entry) above, with C38S counted along it

Consider `O=C(NC1=CC(=O)[C@H]2O[C@H]2[C@H]1O)c1ccccc1O` [DEHYDROXYMETHYLEPOXYQUINOMICIN], for which the Stability entry in series [1] is recorded as “Stable”.
With `C=CCOc1ccccc1C(=O)NC1=CC(=O)[C@H]2O[C@H]2[C@H]1O` (racemic), the inhibition entry in the series with RAW264.7 [2] was “Dose-dependent effect”. In the series with RAW264.7 [3], the inhibition result was “Active”. Also, in the series on RAW264.7 [4], the Activity entry is “Non-toxic”.
Turning to `O=C(/C=C/COc1ccccc1C(=O)NC1=CC(=O)[C@H]2O[C@H]2[C@H]1O)NCCOCCOCCNC(=O)CCCC[C@@H]1SC[C@@H]2NC(=O)N[C@@H]21` (mixture of isomers), the result in series [5] was Active. Further, the Stability result in series [6] is “Stable”. In addition, the inhibition entry in the series on RAW264.7 [7] is “inactive”. Besides, in series [8], the result was inactive.
